Laboratory results as given in US20250152616A1, “COMPOSITIONS FOR AND METHODS OF TREATING, PREVENTING, AND/OR MITIGATING PAIN” (Duke University, priority 2022, published 2025).

Tested on: dissociated DRG neurons
Assay: Fura-2 calcium imaging of dissociated DRG neurons stimulated with capsaicin
Assay type: cell-based, mouse
Text: DRG were isolated from mice using a modified version of the previously described protocol (Perner C, et al. (2021) STAR Protoc. 2:100333). Briefly, mice were euthanized and dosed in 70% ethanol to prevent fur contamination. Mice were positioned prone, and an incision was made along the spine from the neck to the base of the tail. Under a dissecting microscope, the surrounding soft tissue of the spinal column was removed from the dorsal side by Friedman-Pearson Rongeurs (Fine Science Tools, Foster City, CA, Cat #16021-14) from the mid thoracic region to the lumbosacral joint. The vertebral bone surrounding the DRG was gently crushed and removed with rongeurs exposing the spinal cord. The DRG were carefully extracted near the foramen between the vertebral levels. L3 and L4 DRG were collected for analyses. Dissected DRG were placed directly into ice-cold DMEM-F12 medium (ThermoFisher, Cat #11320033) for in vitro culture, Trizol (ThermoFisher, Cat #15596018) for PCR analyses, or 4% PFA for histology. For cell culture experiments, collected DRG were digested in digestion solution comprised of collagenase type II (Worthington, Lakewood, NJ, Cat #LS004176) and dispase (1.5 mg/mL each) dissolved in DMEM/F12. DRG were agitated in a digestion solution on an orbital shaker at 60 rpm and 37° C. for 20 minutes and repeated thrice with fresh digestion solution. Next, the digestion solution was replaced with trypsin-EDTA (0.025%) in DMEM/F12 and incubated for an additional 15 min to disrupt the remaining cell-to-cell adhesions. The solution was then replaced with DMEM/F12 and FBS (1:3) to neutralize trypsin. DRG were triturated to create a cell suspension and gently layered onto 15% bovine serum albumin (BSA) solution without mixing and centrifuged for 6 min at 280 g with minimal acceleration and no deceleration to separate non-neuronal cells and debris (Owen D E, et al. (2012) Methods Mol Biol. 846:179-187). […]
Intracellular cytosolic Ca^2+ was evaluated by Fura-2 loaded DRG neurons (Khomula E V, et al. (2019) J Neurosci. 39:7061-7073). […]

Nc1ncnc2c1ncn2[C@@H]1O[C@H](CO)[C@@H](O)[C@H]1O [adenosine]
NGF-increased functional responses to capsaicin (Fura-2 average and peak intensity) (NGF 200 ng/mL 1 day, adenosine 5 μM for 5 min, capsaicin 100 nM): attenuated | functional activity of DRG neurons (normalized peak intensity, calcium imaging) (initial screening, two different concentrations of adenosine, capsaicin stimulation): decreased
